# Where two headings read alike, the source gives them in different places.
# Assays:
# [1] = Powder Solubility Test; assay type: physicochemical; settings: thermodynamic from solid, shaken 1 hour at 37° C.
# Procedure: Appropriate amounts of the test substances are put into appropriate containers. To the respective containers are added 200 μL of JP-1 fluid (sodium chloride 2.0 g, hydrochloric acid 7.0 mL and water to reach 1000 mL), 200 μL of JP-2 fluid (phosphate buffer (pH 6.8) 500 mL and water 500 mL), and 200 μL of 20 mmol/L TCA (sodium taurocholate)/JP-2 fluid (TCA 1.08 g and JP-2 fluid to reach […]). IN the case that all amount of the test compound is dissolved after the addition of the test fluid, the test compound is added as appropriate. The containers are sealed, and shaken for 1 hour at 37° C. The mixtures are filtered, and 100 μL of methanol is added to each of he filtrate […] so that the filtrates are two-fold diluted. The dilution ratio may be changed if necessary. The dilutions are observed for bubbles and precipitates, and then the containers are sealed and shaken. Quantification is performed by HPLC with an absolute calibration method.
# [2] = molecular target: T1, CYP2C19 (Homo sapiens, UniProt P33261); assay: CYP Inhibition Assay (mephenytoin 4'-hydroxylation); assay type: in vitro ADME; settings: pooled human hepatic microsome, 50 μmol/L S-mephenytoin, 15 minutes, 37° C.
# T1 construct: enzyme, pooled human hepatic microsome 0.2 mg protein/mL; from tissue
# T1 sequence (P33261 whole entry): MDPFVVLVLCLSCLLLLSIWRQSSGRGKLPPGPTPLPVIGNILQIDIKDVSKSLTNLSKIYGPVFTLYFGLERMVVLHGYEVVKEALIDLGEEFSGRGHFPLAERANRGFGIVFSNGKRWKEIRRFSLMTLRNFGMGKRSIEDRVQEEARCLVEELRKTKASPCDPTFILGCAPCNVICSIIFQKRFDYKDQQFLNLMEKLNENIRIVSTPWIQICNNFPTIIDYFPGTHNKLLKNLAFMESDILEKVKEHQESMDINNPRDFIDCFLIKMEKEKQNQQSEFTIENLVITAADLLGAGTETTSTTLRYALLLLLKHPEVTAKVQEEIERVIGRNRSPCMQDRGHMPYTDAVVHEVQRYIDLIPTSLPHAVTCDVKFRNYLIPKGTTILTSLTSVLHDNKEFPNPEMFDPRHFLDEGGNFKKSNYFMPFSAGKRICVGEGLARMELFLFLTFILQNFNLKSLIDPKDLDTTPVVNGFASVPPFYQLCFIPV
# Procedure: Using commercially available pooled human hepatic microsome, and employing, as markers, 7-ethoxyresorufin O-deethylation (CYP1A2), tolbutamide methyl-hydroxylation (CYP2C9), mephenytoin 4'-hydroxylation (CYP2C19), dextromethorphan O-demethylation (CYP2D6), and terfenadine hydroxylation (CYP3A4) as typical substrate metabolism reactions of human main five CYP enzyme forms (CYP1A2, 2C9, 2C19, 2D6, 3A4) an inhibitory degree of each metabolite production amount by a test compound was assessed. […] After the centrifugation at 3000 rpm for 15 minutes, resorufin (CYP1A2 metabolite) in the supernatant was quantified by a fluorescent multilabel counter and tolbutamide hydroxide (CYP2C9 metabolite), mephenytoin 4' hydroxide (CYP2C19 metabolite), dextrorphan (CYP2D6 metabolite), and terfenadine alcohol (CYP3A4 metabolite) were quantified by LC/MS/MS. A reaction system containing only DMSO which is a solvent for dissolving a drug was adopted as a control (100%), and the remaining activity (%) was calculated, then IC50 was calculated by reverse presumption with a logistic model using a concentration and an inhibition rate.
# [3] = molecular target: T2, CYP3A4 (Homo sapiens, UniProt P08684); assay: CYP3A4 (MDZ) MBI Test; assay type: in vitro ADME; settings: pooled human liver microsomes, 10 μmol/L MDZ, pre-reaction 0 or 30 minutes
# T2 construct: enzyme, pooled human hepatic microsome 0.2 mg protein/mL; from tissue
# T2 sequence (P08684 whole entry): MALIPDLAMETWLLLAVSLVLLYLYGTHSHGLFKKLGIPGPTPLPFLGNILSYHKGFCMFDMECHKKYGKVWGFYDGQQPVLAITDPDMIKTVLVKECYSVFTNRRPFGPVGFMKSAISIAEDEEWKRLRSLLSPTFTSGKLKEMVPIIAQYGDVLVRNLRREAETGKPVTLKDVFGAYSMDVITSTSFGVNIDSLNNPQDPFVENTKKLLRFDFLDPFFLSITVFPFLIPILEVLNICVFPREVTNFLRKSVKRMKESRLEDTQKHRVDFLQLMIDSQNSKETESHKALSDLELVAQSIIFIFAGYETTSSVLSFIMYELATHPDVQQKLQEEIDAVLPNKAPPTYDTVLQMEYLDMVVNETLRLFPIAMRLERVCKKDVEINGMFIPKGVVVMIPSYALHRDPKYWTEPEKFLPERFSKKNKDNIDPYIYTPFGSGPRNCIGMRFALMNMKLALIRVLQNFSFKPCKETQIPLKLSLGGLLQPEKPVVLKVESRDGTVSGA
# Procedure: CYP3A4 (MDZ) MBI test is a test of investigating mechanism based inhibition (MBI) ability on CYP3A4 inhibition of a compound by enhancement of a metabolism reaction. CYP3A4 inhibition is evaluated using 1-hydroxylation reaction of midazolam (MDZ) by pooled human liver microsomes as an index.
# The reaction conditions are as follows: substrate, 10 μmol/L MDZ; pre-reaction time, 0 or 30 minutes; substrate reaction time, 2 minutes; reaction temperature, 37° C.; protein content of pooled human liver microsomes, at pre-reaction time 0.5 mg/mL, at reaction time 0.05 mg/mL (at 10-fold dilution); concentrations of the compound of the present invention, 1, 5, 10, 20 μmol/L (four points).
# Pooled human liver microsomes in K-Pi buffer (pH 7.4) and a solution of the compound of the present invention as a pre-reaction solution were added to a 96-well plate at the composition of the pre-reaction. […] After centrifuged at 3000 rpm for 15 minutes, 1-hydroxymidazolam in the supernatant was quantified by LC/MS/MS.
# The sample adding DMSO to a reaction system instead of a solution of the compound of the present invention is adopted as a control (100%) because DMSO is used as a solvent to dissolve the compound of the present invention. […] Shifted IC value is calculated as “IC of preincubation at 0 min/IC of preincubation at 30 min”. […]
compound,measurement,setting,value
Cc1ccc(-c2c([C@H](OC(C)(C)C)C(=O)O)c(C)c3c4c2cc(-c2ccnc(-c5ccc6c(cnn6C)c5)c2)n4CCN3CCN(C)C)cc1 [Compound I-034],solubility at 1 h,"[1]; aqueous buffer, JP-2 fluid (phosphate buffer pH 6.8), read-out: powder solubility, JP-2 fluid",0.603 µg/mL
same,solubility at 1 h,"[1]; pH 1.2, simulated gastric fluid, JP-1 fluid, read-out: powder solubility, JP-1 fluid",> 1000 µg/mL
same,solubility at 1 h,"[1]; pH 6.8, fassgf or other biorelevant, 20 mmol/L TCA (sodium taurocholate)/JP-2 fluid, read-out: powder solubility, 20 mmol/L TCA/JP-2 fluid",> 1000 µg/mL
same,IC50,[2],> 20 µM
same,CYP3A4 (MDZ) MBI (shifted IC),[3],"(−) (When a shifted IC is 1.0 or less, this is defined as negative)"
